The source of these data is paper PMC6321301, “Phenolic Composition, Antioxidant Properties, and Inhibition toward Digestive Enzymes with Molecular Docking Analysis of Different Fractions from Prinsepia utilis Royle Fruits” (Molecules, 2018).

pIC50: −log10 of the molar value. Like-named read-outs stand apart in the source and are kept apart here.

Experiment [1] addresses T1, porcine pancreatic lipase (Sus scrofa, UniProt P00591).
T1 construct: purchased Sigma (Sigma-Aldrich, Shanghai, China); host or cells: porcine pancreas (natural source)
T1 sequence (P00591 1-450): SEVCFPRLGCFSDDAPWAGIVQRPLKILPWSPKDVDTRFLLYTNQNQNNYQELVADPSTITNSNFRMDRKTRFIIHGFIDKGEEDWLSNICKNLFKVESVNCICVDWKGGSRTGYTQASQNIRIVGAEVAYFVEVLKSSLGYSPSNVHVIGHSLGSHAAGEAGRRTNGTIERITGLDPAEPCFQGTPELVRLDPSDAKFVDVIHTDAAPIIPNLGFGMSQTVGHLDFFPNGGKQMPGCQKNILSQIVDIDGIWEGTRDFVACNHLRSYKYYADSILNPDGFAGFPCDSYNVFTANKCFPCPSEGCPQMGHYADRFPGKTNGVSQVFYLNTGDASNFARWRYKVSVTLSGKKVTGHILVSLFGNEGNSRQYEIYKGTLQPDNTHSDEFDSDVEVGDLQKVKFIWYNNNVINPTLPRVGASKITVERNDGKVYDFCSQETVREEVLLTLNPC
The experiment can be described thus: Pancreatic lipase inhibition. The conditions noted are these: mean ± SD, n = 3. The experiment is classed as biochemical. As for the experimental part: (§1) Methanol, acetonitrile, formic acid, and Folin–Ciocalteu reagent were purchased from Merck (Darmstadt, Germany). […] All of the other reagents that were used were of analytical grade.
The inhibitory effects of different fractions from P. utilis fruits, rutin, isorhamnetin-3-O-glucoside, and cyanidin-3-O-glucoside against pancreatic lipase activity were measured according to the method reported earlier. The absorbance (OD) was measured at 400 nm by using a SpectraMax M5 microplate reader. Each test was measured three times.

Experiment [2] concerns the target T2, α-glucosidase from Saccharomyces cerevisiae (Saccharomyces cerevisiae, UniProt P53341).
T2 construct: purchased Sigma (Sigma-Aldrich, Shanghai, China); host or cells: Saccharomyces cerevisiae (natural source, as named)
The experiment in a line: α-Glucosidase inhibition. The experiment is classed as biochemical. As for the experimental part: as §1
The α-glucosidase inhibition activities of different fractions from P. utilis fruits, rutin, and isorhamnetin-3-O-glucoside were evaluated as previously described with some modifications. The absorbance (OD) of the each reaction mixture at 405 nm was recorded by using a SpectraMax M5 microplate reader (Molecular Device, Sunnyvale, CA, USA).

The conditions of experiment [3]: cited from earlier work.
For experiment [4] the following is noted: cited from earlier work. This is another data set of the same source.
A short description of experiment [5]: DPPH radical scavenging assay. The note with it: mean ± SD, n = 3. As for the experimental part: The current result was consistent with many previous studies. Huang et al. reported that the phenolic compounds in P. utilis seeds were responsible for their DPPH radical scavenging activities, regardless of different pretreatments. Zhang et al. also considered phenolics to be the main bioactive substances in Rhus chinensis Mill. fruits to scavenge DPPH radicals.
The antioxidant activities of all of the fractions from P. utilis fruits were determined by DPPH assay according to the methods described earlier. The absorbance of the reaction mixture was recorded by a SpectraMax M5 microplate reader (Molecular Device, Sunnyvale, CA, USA) at 517 nm. The DPPH radical scavenging activity (%) was calculated as [(ODcontrol − ODsample)/ODcontrol] × 100. Each test was measured in triplicate.

Experiment [6] in a line: ABTS radical scavenging assay. The conditions noted are these: mean ± SD, n = 3. The source says: Phenolic compounds in P. utilis fruits may be also in charge of the ABTS scavenging capacities, which were confirmed by a high Pearson’s correlation coefficient between the phenolic contents and ABTS radical scavenging ratio (r = 0.889, p < 0.01). Some discrepancies between the IC50 values of DPPH and ABTS assays of the same fraction from P. utilis fruits were observed, which may be due to the different radical structure. Many previous studies also found a similar phenomenon when the DPPH results were compared with the ABTS findings.
The antioxidant activities of all of the fractions from P. utilis fruits were measured by ABTS assay as described earlier. The absorbance of the reaction mixture was determined with a SpectraMax M5 microplate reader at 745 nm. The ABTS radical scavenging activity (%) of each sample was calculated as [(ODcontrol − ODsample)/ODcontrol] × 100. Each test was measured three times.

The subject of experiment [7] is H2O2-induced HepG2 cells. The experiment can be described thus: Inhibition of intracellular ROS in H2O2-induced HepG2 cells (DCFH-DA, flow cytometry). Format: cell-based. The conditions noted are these: 8.0 μg/mL, positive control; p < 0.05.
Protocol: HepG2 cells were supplied by Kunming cell bank, Chinese Academy of Sciences (Kunming, China), which were cultured in normal Dulbecco’s Modified Eagle Medium (DMEM) medium containing 10% fetal bovine serum (FBS), 1% antibiotic mixture of streptomycin (100 mg/mL) and penicillin (100 U/mL) at 37 °C with a humidified 5% CO2 atmosphere. […] Briefly, cells were seeded on six-well plates at 2.0 × 10^5 cells per well, and incubated for 24 h. […] Then, cells were harvested and washed twice with phosphate buffer solution (PBS). The cells of all of the groups were incubated with 10 μM of DCFH-DA for 20 min, and washed with serum-free medium to remove excess DCFH-DA by centrifuging at 156× g for five minutes. Subsequently, the intracellular ROS of each group was measured by flow cytometry with guava® easyCyte 6-2L (Millipore, Billerica, MA, USA) within 45 min. All of the experiments were measured in triplicate.
For experiment [8], the system named is α-glucosidase. The note with it: cited from earlier work.

T2 sequence (P53341 whole entry): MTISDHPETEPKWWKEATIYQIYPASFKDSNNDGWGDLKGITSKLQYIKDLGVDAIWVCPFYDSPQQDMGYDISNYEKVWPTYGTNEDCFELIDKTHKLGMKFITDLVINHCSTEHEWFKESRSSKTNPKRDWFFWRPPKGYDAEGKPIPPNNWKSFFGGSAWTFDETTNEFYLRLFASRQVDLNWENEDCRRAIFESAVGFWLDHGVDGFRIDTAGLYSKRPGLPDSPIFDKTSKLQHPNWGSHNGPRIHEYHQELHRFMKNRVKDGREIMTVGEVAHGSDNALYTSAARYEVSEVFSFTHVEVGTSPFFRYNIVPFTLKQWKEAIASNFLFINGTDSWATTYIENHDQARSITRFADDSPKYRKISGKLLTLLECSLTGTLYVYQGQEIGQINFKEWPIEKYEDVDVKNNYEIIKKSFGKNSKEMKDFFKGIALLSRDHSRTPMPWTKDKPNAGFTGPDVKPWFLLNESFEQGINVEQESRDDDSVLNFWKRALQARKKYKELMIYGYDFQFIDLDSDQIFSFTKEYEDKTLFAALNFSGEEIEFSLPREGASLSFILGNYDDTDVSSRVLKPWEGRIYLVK

As for `OC[C@H]1O[C@@H](Oc2cc3c(O)cc(O)cc3[o+]c2-c2ccc(O)c(O)c2)[C@H](O)[C@@H](O)[C@@H]1O` [Cyanidin-3-O-glucoside], the “pancreatic lipase inhibition IC50” value in experiment [1] was determined as 249.20 ± 3.87 µg/mL.

For `COc1cc(-c2oc3cc(O)cc(O)c3c(=O)c2O[C@@H]2O[C@H](CO[C@@H]3O[C@@H](C)[C@H](O)[C@@H](O)[C@H]3O)[C@@H](O)[C@H](O)[C@H]2O)ccc1O` [Isorhamnetin-3-O-rutinoside], the “pancreatic lipase inhibition IC50” value in experiment [1] amounted to 237.87 ± 8.20 µg/mL. Further, in experiment [2] (mean ± SD, n = 3), the “α-glucosidase inhibition IC50” value was 90.19 ± 3.27 µg/mL.

Regarding `C[C@@H]1O[C@@H](OC[C@H]2O[C@@H](Oc3c(-c4ccc(O)c(O)c4)oc4cc(O)cc(O)c4c3=O)[C@H](O)[C@@H](O)[C@@H]2O)[C@H](O)[C@H](O)[C@H]1O` [Rutin], the “ABTS radical scavenging IC50” value in experiment [3] was 5.34 µg/mL. In addition, the figures for the pIC50 in experiment [1] and in experiment [2] were 3.54 and 3.68, respectively. Further, the “DPPH radical scavenging IC50” value in experiment [4] was 29.63 µg/mL.

On to `O=C1O[C@H]([C@@H](O)CO)C(O)=C1O` [Vc, ascorbic acid], for which the “DPPH radical scavenging IC50” value in experiment [5] was found to be 2.32 ± 0.11 µg/mL. Also, the “ABTS radical scavenging IC50” value in experiment [6] turned out to be 1.92 ± 0.21 µg/mL. In addition, the “intracellular ROS generation” value in experiment [7] is “significantly inhibited intracellular ROS generation”.

On to `O=C(O[C@@H]1Cc2c(O)cc(O)cc2O[C@H]1c1cc(O)c(O)c(O)c1)c1cc(O)c(O)c(O)c1` [gallocatechin gallate], for which, in experiment [8], the “manner of α-glucosidase inhibition” value is “noncompetitive” and the “α-glucosidase inhibition IC50” value is 30.02 µg/mL.

For the compound `O=C(CCc1ccc(O)cc1)c1c(O)cc(O)cc1O` [phloretin], the “α-glucosidase inhibition IC50” value in experiment [8] was 31.26 µg/mL. Besides, in experiment [8] (reversible), the “manner of α-glucosidase inhibition” value is recorded as “mixed-type”.
